Measured values: patent US7081256B2, “Quinolinone derivative pharmaceutical compositon and production method therefor” (Dainippon Ink and Chemicals, Inc., priority 2001, dated 2006)
Like-named read-outs stand apart in the source and are kept apart here. Blank lines part the entries; values can stand above or below the molecule they belong to.

Legend:
[1] = Differential scanning calorimetry (DSC); type: physicochemical; conditions: for DSC Fusion enthalpy ΔH: 25 to 250° C., heating rate 20° C./min.
Text: Furthermore, the quinolinone derivative used in the present invention has a fusion enthalpy (ΔH) of 30 J/g or more, and preferably 35 J/g or more. […] As used herein, the term “fusion enthalpy” refers to a value obtained from an endothermic peak due to fusion of the quinolinone derivative crystal in differential scanning calorimetry (DSC) and is an index of the crystallinity.
(§1) • Measurement of particle size distribution: The particle size distribution was automatically measured by AEROSIZER (manufactured by Central Scientific Commerce, Inc.). • DSC method: Using DSC7 (manufactured by Perkin Elmer Co.), the measurement was conducted at a temperature within a range from 25 to 250° C. under the conditions of a heating rate of 20° C./min. by a normal method.

[2] = Measurement of particle size distribution (AEROSIZER); type: physicochemical; conditions: for Average particle diameter: mass median aerodynamic diameter
Protocol: As used herein, the expression “quinolinone derivative is in the form of particles, which have an average particle diameter of 0.5 to 10 μm and such a particle size distribution that particles having a particle diameter of 15 μm or less account for 90% or more of the totality of the particles” means that a mass median aerodynamic diameter in the volume-basis distribution obtained, when the particle size distribution of the quinolinone derivative is measured by an aerodynamic flight time type dry particle size distribution measuring apparatus (AEROSIZER: Central Scientific Commerce, Inc.), is within a range from 0.5 to 10 μm and the particles have such a particle size distribution that particles having a particle diameter of 15 μm or less account for 90% or more of the totality of the particles.
as §1

[3] = Dissolution test, paddle method, 50 rpm, 0.5% sodium lauryl sulfate; type: physicochemical; conditions: paddle 50 rpm, compared with the non-ground product
Protocol: Furthermore, dissolution properties of these quinolinone derivatives were evaluated by the dissolution test (paddle method). The results are shown in FIG. 2. • Powder X-ray diffraction method: Using RINT-ULTIMA (manufactured by Rigaku Denki Kogyo Co., Ltd.), the measurement was conducted at a diffraction angle within a range from 5 to 40° under the conditions of Cu—Kα rays, 40 KV and 30 mA by the normal method. • Dissolution test method: According to the second method (paddle method) of the dissolution test method of The Pharmacopoeia of Japan, Fourteenth Edition, the measurement was conducted under the conditions of a paddle rotational speed of 50 rpm using 0.5% sodium lauryl sulfate as a test liquid.
(§2) According to the disintegration test of The Pharmacopoeia of Japan, Fourteenth Edition, the disintegration time of the resulting tablets was measured by using water as a test liquid (n=3). […]
as §2, §2

[4] = dog, in vivo, po, 10 mg/kg
Protocol: After oral administration, 30 ml of distilled water was orally administered. After oral administration, 2.5 ml of blood was collected from the antebrachial vein over time and was then centrifuged to obtain blood plasma. After adding the one-fold amount of acetonitrile to blood serum to remove protein, the amounts of quinolinone derivative and its metabolite were determined by using HPLC.
From the quantitatively determined values of the quinolinone derivative and its metabolite immediately after collecting blood, an average value of a maximum concentration in blood (Cmax) and an average value of an area under a curve of concentration in blood vs time (AUC) were determined.

Structure (SMILES): CCCCCCCCOc1c(O)c2ccc(NC(=O)/C=C/c3cc(OC)c(O)c(OC)c3)cc2n(C)c1=O [quinolinone derivative (B), 7-(3,5-dimethoxy-4-hydroxycinnamoylamino)-3-octyloxy-4-hydroxy-1-methyl-2(1H)-quinoline]
- DSC Fusion enthalpy ΔH [1]: ≥ 52.7 J/g
- DSC Fusion enthalpy ΔH ([1]; listed as (B)): 52.7 J/g
- Proportion (%) of particles having a particle diameter of 15 μm or less based on the totality of the particles [2]: ≥ 0.6%
- Proportion (%) of particles having a particle diameter of 15 μm or less based on the totality of the particles ([2]; listed as (B)): 0.6%
- Average particle diameter [2]: 33.3 μm
- Average particle diameter ([2]; listed as (B)): 33.3 μm

Structure (SMILES): CCCCCCCCOc1c(O)c2ccc(NC(=O)/C=C/c3cc(OC)c(O)c(OC)c3)cc2n(C)c1=O [quinolinone derivative (B-1), 7-(3,5-dimethoxy-4-hydroxycinnamoylamino)-3-octyloxy-4-hydroxy-1-methyl-2(1H)-quinoline]
- DSC Fusion enthalpy ΔH ([1]; listed as (B-1)): 51.6 J/g
- AUC increase as compared with the non-ground product [4]: 8.7 times
- Cmax increase as compared with the non-ground product [4]: 9 times
- Proportion (%) of particles having a particle diameter of 15 μm or less based on the totality of the particles ([2]; listed as (B-1)): 95%
- Average particle diameter ([2]; listed as (B-1)): 6.6 μm

Other lines, results leading:

- Solid state by DSC (endothermic peak of β-type crystal) ([1]; after grinding in agate mortar for 30 minutes): amorphous state
Structure (SMILES): CCCCCCCCOc1c(O)c2ccc(NC(=O)/C=C/c3cc(OC)c(O)c(OC)c3)cc2n(C)c1=O [Comparative Example 2, 7-(3,5-dimethoxy-4-hydroxycinnamoylamino)-3-octyloxy-4-hydroxy-1-methyl-2(1H)-quinoline]

- DSC Fusion enthalpy ΔH [1]: ≥ 49.9 J/g
- DSC Fusion enthalpy ΔH ([1]; listed as (A)): 49.9 J/g
- Proportion (%) of particles having a particle diameter of 15 μm or less based on the totality of the particles [2]: ≥ 9.9%
- Proportion (%) of particles having a particle diameter of 15 μm or less based on the totality of the particles ([2]; listed as (A)): 9.9%
- Average particle diameter [2]: 25.3 μm
- Average particle diameter ([2]; listed as (A)): 25.3 μm
Structure (SMILES): CCCCCCCCOc1c(O)c2ccc(NC(=O)/C=C/c3cc(OC)c(O)c(OC)c3)cc2n(C)c1=O [quinolinone derivative (A), 7-(3,5-dimethoxy-4-hydroxycinnamoylamino)-3-octyloxy-4-hydroxy-1-methyl-2(1H)-quinoline]

- DSC Fusion enthalpy ΔH ([1]; listed as (A-1)): 47.7 J/g
- dissolution rate (FIG. 2) [3]: drastically increased
- Proportion (%) of particles having a particle diameter of 15 μm or less based on the totality of the particles ([2]; listed as (A-1)): 100%
- Average particle diameter ([2]; listed as (A-1)): 4.5 μm
Structure (SMILES): CCCCCCCCOc1c(O)c2ccc(NC(=O)/C=C/c3cc(OC)c(O)c(OC)c3)cc2n(C)c1=O [quinolinone derivative (A-1), 7-(3,5-dimethoxy-4-hydroxycinnamoylamino)-3-octyloxy-4-hydroxy-1-methyl-2(1H)-quinoline]
